Patent US10981932B2, “Macrocyclic indole derivatives” (Bayer Aktiengesellschaft, priority 2016, dated 2021)
Structures can show the parent of a compound that is named as a salt. Where two headings read alike, the source gives them in different places. Each block holds one compound with its values, some of them ahead of it.

Experiments:
[1] = molecular target: MCL-1 (Homo sapiens, UniProt Q07820); test: Protein-protein interaction assay MCL-1/Noxa BH3 peptide (MCL-1 assay), TR-FRET; type: binding; conditions: MBP-MCL-1 / Noxa BH3-derived peptide, median
Sequence of MCL-1 (Q07820 whole entry): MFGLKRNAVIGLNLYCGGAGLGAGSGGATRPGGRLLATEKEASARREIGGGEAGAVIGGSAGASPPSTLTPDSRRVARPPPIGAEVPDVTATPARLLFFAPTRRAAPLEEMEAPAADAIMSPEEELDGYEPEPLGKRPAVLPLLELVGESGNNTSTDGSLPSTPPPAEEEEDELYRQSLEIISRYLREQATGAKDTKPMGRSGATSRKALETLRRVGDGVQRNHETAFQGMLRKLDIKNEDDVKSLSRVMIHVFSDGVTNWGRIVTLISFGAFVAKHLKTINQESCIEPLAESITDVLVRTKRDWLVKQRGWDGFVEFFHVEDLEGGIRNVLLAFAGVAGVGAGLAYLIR
Procedure, shortened: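 IC50 came from a 4-parameter fit of the normalized 665/620 nm TR-FRET ratio (anti-MBP Eu-cryptate/streptavidin-XL665). Compounds (0.1 nM–20 μM, duplicates) were preincubated 10 min at 22 °C with 1 nM MBP-MCL-1 in pH 7 Tris/NaCl/KF buffer, then read after 1 h at 22 °C plus overnight at 4 °C.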

[2] = test system: SUDHL10; test: Induction of cytotoxicity (CellTiter-Glo, 5 h), SUDHL10
[3] = test system: A2780; test: Anti-proliferative effect (CellTiter-Glo, 72 h), A2780; type: cell-based; conditions: A2780 cells, median, read-out: IC50 antiproliferation assay A2780 [M] (median)
Procedure, shortened: (§1)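 Cells plated and incubated with compounds for 72 h at 37 °C, with a parallel day 0 reference plate for time-zero signal. Viability read by CellTiter-Glo luminescence after 10 min, measured identically on the day 0 and 72 h plates.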

[4] = test system: OPM2; test: Anti-proliferative effect (CellTiter-Glo, 72 h), OPM2; type: cell-based; conditions: OPM2 cells, median, read-out: IC50 antiproliferation assay OPM2 [M] (median)
Procedure, shortened: as §1

[5] = test system: SUDHL5; test: Induction of caspase-3/7 activity (Caspase-Glo 3/7), SUDHL5; type: cell-based; conditions: caspase-3/7 induction, SUDHL5 cells, 3 h treatment, median
Procedure, shortened: (§2)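 DLBCL lines SUDHL5 and SUDHL10 treated with compounds for 3 h at 37 °C; caspase-3/7 activity read by Caspase-Glo 3/7 luminescence. Medium-only background subtracted; EC50 fitted with bottom fixed at 1 and top fixed at the reference compound's maximal induction.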

[6] = test system: SUDHL5; test: Induction of cytotoxicity (CellTiter-Glo, 5 h), SUDHL5
[7] = test system: MV-4-11; test: Anti-proliferative effect (CellTiter-Glo, 72 h), MV-4-11; type: cell-based; conditions: MV-4-11 cells, median, read-out: IC50 antiproliferation assay MV-4-11 [M] (median)
Procedure, shortened: as §1

[8] = test system: SUDHL10; test: Induction of caspase-3/7 activity (Caspase-Glo 3/7), SUDHL10; type: cell-based; conditions: caspase-3/7 induction, SUDHL10 cells, 3 h treatment, median
Procedure, shortened: as §2

[9] = test system: SUDHL10; test: Anti-proliferative effect (CellTiter-Glo, 72 h), SUDHL10; type: cell-based; conditions: SUDHL10 cells, antiproliferation, 72 h incubation, median, read-out: Antiproli SUDHL10 [M] (median)
Procedure, shortened: as §1

[10] = test system: SUDHL5; test: Anti-proliferative effect (CellTiter-Glo, 72 h), SUDHL5; type: cell-based; conditions: SUDHL5 cells, antiproliferation, 72 h incubation, median, read-out: Antiproli SUDHL5 [M] (median)
Procedure, shortened: as §1

[11] = Homo sapiens, SU-DHL10, 5 h, read-out: Cytotox SUDHL10 [M] (median), SUDHL10 cells, cytotoxicity induction, CellTiter-Glo, 5 h incubation, median
[12] = Homo sapiens, SU-DHL-5, 5 h, read-out: Cytotox SUDHL5 [M] (median), SUDHL5 cells, cytotoxicity induction, CellTiter-Glo, 5 h incubation, median
[13] = read-out: Cytotox SUDHL10 [M] (median), SUDHL10 cells, cytotoxicity induction, CellTiter-Glo, 5 h incubation, median
[14] = read-out: Cytotox SUDHL5 [M] (median), SUDHL5 cells, cytotoxicity induction, CellTiter-Glo, 5 h incubation, median

Structure (SMILES): Cc1nn(C)c2c1-c1cccc3c(CCCOc4cccc5ccccc45)c(C(=O)O)n(c13)CCCN(c1ccc(N3CCOCC3)cc1)C2 (single isomer, unassigned; enantiomer 1) [Example 1-99, 9,11-Dimethyl-7-[4-(morpholin-4-yl)phenyl]-1-[3-(1-naphthyloxy)propyl]-4,5,6,7,8,9-hexahydropyrazolo[3′,4′:7,8][1,5]diazecino[9,10,1-hi]indole-2-carboxylic Acid (Enantiomer 1)]
- IC50 [1]: 0.0203 µM
- IC50 [2, 11]: 1.93e-05 M
- IC50 ([3]; Homo sapiens, A2780, 72 h): 1.12e-05 M
- IC50 ([4]; Homo sapiens, OPM-2, 72 h): 1.98e-05 M
- EC50 [5]: 9 µM
- IC50 [6, 14]: 1.3e-05 M
- IC50 ([7]; Homo sapiens, MV4-11, 72 h): 7.19e-06 M
- EC50 [8]: 13.5 µM
- IC50 ([9]; Homo sapiens, SU-DHL10, 72 h): 4.63e-06 M
- IC50 ([10]; Homo sapiens, SU-DHL-5, 72 h): 8.76e-06 M

Structure (SMILES): Cn1nc(COc2ccc(N3CCOCC3)cc2)c2c1COCC=CCn1c(C(=O)O)c(CCCOc3cccc4ccccc34)c3cccc-2c31 (single isomer, unassigned; enantiomer 1) [Example 119, (+)-E/Z)-1-methyl-3-{[4-(morpholin-4-yl)phenoxy]methyl}-7-[3-(naphthalen-1-yloxy)propyl]-1,10,13,15-tetrahydropyrazolo[4′,3′:9,10][1,6]oxazacycloundecino[8,7,6-hi]indole-8-carboxylic Acid (Enantiomer 1)]
- IC50 [1]: 0.0213 µM
- IC50 [2, 11]: > 3.3e-05 M
- IC50 ([3]; Homo sapiens, A2780, 72 h): 1.21e-05 M
- IC50 ([4]; Homo sapiens, OPM-2, 72 h): 6.62e-06 M
- EC50 ([5]; Homo sapiens, SU-DHL-5, 3 h): 19.5 µM
- IC50 [6, 12]: 2.85e-05 M
- IC50 ([7]; Homo sapiens, MV4-11, 72 h): 8.87e-06 M
- EC50 ([8]; Homo sapiens, SU-DHL10, 3 h): 22.5 µM
- IC50 ([9]; Homo sapiens, SU-DHL10, 72 h): 2e-05 M
- IC50 ([10]; Homo sapiens, SU-DHL-5, 72 h): 1.35e-05 M

Structure (SMILES): Cn1nc(COc2ccc(N3CCN(S(C)(=O)=O)CC3)cc2)c2c1COCCCCn1c(C(=O)O)c(CCCOc3cccc4ccccc34)c3cccc-2c31 (single isomer, unassigned; enantiomer 1) [Example 1-9, 1-methyl-3-({4-[4-(methylsulfonyl)piperazin-1-yl]phenoxy}methyl)-7-[3-(naphthalen-1-yloxy)propyl]-1,10,11,12,13,15-hexahydropyrazolo[4′,3′:9,10][1,6]oxazacycloundecino[8,7,6-hi]indole-8-carboxylic Acid (Enantiomer 1)]
- IC50 [1]: 0.0242 µM
- IC50 [2, 13]: 9.08e-06 M
- IC50 [3]: > 3.3e-05 M
- IC50 [4]: > 3.3e-05 M
- EC50 [5]: 12.5 µM
- IC50 [6, 14]: 9.46e-06 M
- IC50 [7]: 8.59e-06 M
- EC50 [8]: 14.7 µM
- IC50 [9]: 1.17e-05 M
- IC50 [10]: 3.37e-06 M

Structure (SMILES): Cn1nc(COc2ccc(S(C)(=O)=O)cc2)c2c1COCC=CCn1c(C(=O)O)c(CCCOc3cccc4ccccc34)c3cccc-2c31 (single isomer, unassigned) [Example 1-52, (E/Z)-1-methy-3-{[4-(methylsulfonyl)phenoxy]methyl}-7-[3-(naphthalen-1-yloxy)propyl]-1,10,13,15-tetrahydropyrazolo[4′,3′:9,10][1,6]oxazacycloundecino[8,7,6-hi]indole-8-carboxylic Acid]
- IC50 [1]: 0.281 µM
- IC50 [2, 13]: 2.71e-05 M
- IC50 ([3]; Homo sapiens, A2780, 72 h): 2.26e-05 M
- IC50 ([4]; Homo sapiens, OPM-2, 72 h): 3.2e-05 M
- EC50 [5]: 31 µM
- IC50 [6, 14]: 3.15e-05 M
- IC50 ([7]; Homo sapiens, MV4-11, 72 h): 7.75e-06 M
- EC50 [8]: > 33 µM
- IC50 ([9]; Homo sapiens, SU-DHL10, 72 h): 7.55e-06 M
- IC50 ([10]; Homo sapiens, SU-DHL-5, 72 h): 1.25e-05 M

Second part, led by results:

- IC50 [1]: 0.0107 µM
- IC50 ([3]; Homo sapiens, A2780, 72 h): > 3.3e-05 M
- EC50 ([5]; Homo sapiens, SU-DHL-5, 3 h): 12.9 µM
- IC50 ([7]; Homo sapiens, MV4-11, 72 h): 6.78e-06 M
- EC50 ([8]; Homo sapiens, SU-DHL10, 3 h): 22.1 µM
- IC50 ([9]; Homo sapiens, SU-DHL10, 72 h): 5.9e-06 M
- IC50 ([10]; Homo sapiens, SU-DHL-5, 72 h): 2.67e-06 M
Structure (SMILES): Cn1nc(CN2CCOCC2)c2c1COCCCCn1c(C(=O)O)c(CCCOc3cccc4ccccc34)c3cccc-2c31 (single isomer, unassigned; enantiomer 2) [Example 137, 1-methyl-3-(morpholin-4-ylmethyl)-7-[3-(naphthalen-1-yloxy)propyl]-1,10,11,12,13,15-hexahydropyrazolo[4′,3′:9,10][1,6]oxazacycloundecino[8,7,6-hi]indole-8-carboxylic Acid (Enantiomer 2)]
- IC50 [2, 11]: 3.06e-05 M
- IC50 ([4]; Homo sapiens, OPM-2, 72 h): > 3.3e-05 M
- IC50 [6, 12]: 8.98e-06 M

- IC50 [1]: 0.11 µM
- IC50 [3]: > 3.3e-05 M
- EC50 [5]: 26.9 µM
- IC50 [7]: 1.96e-05 M
- EC50 [8]: > 33 µM
- IC50 [9]: 3.25e-05 M
- IC50 [10]: 2.56e-05 M
Structure (SMILES): Cc1c2c(nn1C)CN(C)CCCn1c(C(=O)O)c(CCCOc3cccc4ccccc34)c3cccc-2c31 (single isomer, unassigned; enantiomer 2) [Example 1-35, 7,10,11-trimethyl-1-[3-(naphthalen-1-yloxy)propyl]-4,5,6,7,8,10-hexahydropyrazolo[3′,4′:7,8][1,5]diazecino[9,10,1-hi]indole-2-carboxylic Acid-N-ethylethanamine Salt (Enantiomer 2)]
- IC50 [2, 13]: 1.18e-05 M
- IC50 [4]: > 3.3e-05 M
- IC50 [6, 14]: 2.02e-05 M

- IC50 [1]: 0.00377 µM
- IC50 ([3]; Homo sapiens, A2780, 72 h): 2.44e-05 M
- EC50 ([5]; Homo sapiens, SU-DHL-5, 3 h): 2.26 µM
- IC50 ([7]; Homo sapiens, MV4-11, 72 h): 1.37e-05 M
- EC50 ([8]; Homo sapiens, SU-DHL10, 3 h): 7.48 µM
- IC50 ([9]; Homo sapiens, SU-DHL10, 72 h): 3.93e-06 M
- IC50 ([10]; Homo sapiens, SU-DHL-5, 72 h): 3.06e-06 M
Structure (SMILES): CCc1c2c(nn1C)COCCCCn1c(C(=O)O)c(CCCOc3cccc4ccccc34)c3cccc-2c31 (racemic) [Example 147, (rac)-3-Ethyl-2-methyl-7-[3-(1-naphthyloxy)propyl]-2,10,11,12,13,15-hexahydropyrazolo[4′,3′:9,10][1,6]oxazacycloundecino[8,7,6-hi]indole-8-carboxylic Acid]
- IC50 [2, 11]: 9.53e-06 M
- IC50 ([4]; Homo sapiens, OPM-2, 72 h): 1.05e-05 M
- IC50 [6, 12]: 2.8e-06 M

- IC50 [1]: 0.00442 µM
- IC50 [3]: > 3.3e-05 M
- IC50 ([3]; Homo sapiens, A2780, 72 h): 1.85e-05 M
- EC50 [5]: 1.63 µM
- IC50 ([7]; Homo sapiens, MV4-11, 72 h): 1.69e-05 M
- EC50 [8]: 11.9 µM
- IC50 [9]: 1.87e-06 M
- IC50 [10]: 2.53e-06 M
Structure (SMILES): Cc1c2c(nn1C)CN(C)CCCCn1c(C(=O)O)c(CCCOc3cccc4ccccc34)c3cccc-2c31 (single isomer, unassigned; enantiomer 1) [Example 068, 2,3,14-trimethyl-7-[3-(naphthalen-1-yloxy)propyl]-10,11,12,13,14,15-hexahydro-2H-pyrazolo[3′,4′:8,9][1,6]diazacycloundecino[10,11,1-hi]indole-8-carboxylic Acid (Enantiomer 1)]
- IC50 [2, 13]: 5.02e-06 M
- IC50 ([4]; Homo sapiens, OPM-2, 72 h): 9.82e-06 M
- IC50 [6, 14]: 2.25e-06 M

- IC50 [1]: 0.0191 µM
- IC50 [3]: 1.48e-05 M
- EC50 [5]: 25.9 µM
- IC50 ([7]; Homo sapiens, MV4-11, 72 h): 6.24e-06 M
- EC50 [8]: 30.9 µM
- IC50 [9]: 1.16e-05 M
- IC50 [10]: 1.17e-05 M
Structure (SMILES): CN1CCCn2c(C(=O)O)c(CCCOc3cccc4ccccc34)c3cccc(c32)-c2c(CNCC(F)(F)F)nn(C)c2C1 (single isomer, unassigned; enantiomer 2) [Example 131, 7,9-dimethyl-1-[3-(naphthalen-1-yloxy)propyl]-11-{[(2,2,2-trifluoroethyl)amino]methyl}-4,5,6,7,8,9-hexahydropyrazolo[3′,4′:7,8][1,5]diazecino[9,10,1-hi]indole-2-carboxylic acid-N-ethylethanamine Salt (Enantiomer 2)]
- IC50 [2, 13]: 2.88e-05 M
- IC50 [4]: 1.71e-05 M
- IC50 [6, 14]: 1.46e-05 M

- IC50 [1]: 0.00187 µM
- IC50 ([3]; Homo sapiens, A2780, 72 h): 6.31e-06 M
- EC50 ([5]; Homo sapiens, SU-DHL-5, 3 h): 0.579 µM
- IC50 ([7]; Homo sapiens, MV4-11, 72 h): 3.57e-06 M
- EC50 ([8]; Homo sapiens, SU-DHL10, 3 h): 0.953 µM
- IC50 ([9]; Homo sapiens, SU-DHL10, 72 h): 1.44e-06 M
- IC50 ([10]; Homo sapiens, SU-DHL-5, 72 h): 9.83e-07 M
Structure (SMILES): Cn1nc(COc2ccc(N3CCN(S(C)(=O)=O)CC3)cc2)c2c1COCCCCn1c(C(=O)O)c(CCCOc3cccc4ccccc34)c3cccc-2c31 (racemic) [Example 1-8, (rac)-1-methyl-3-({4-[4-(methylsulfonyl)piperazin-1-yl]phenoxy}methyl)-7-[3-(naphthalen-1-yloxy)propyl]-1,10,11,12,13,15-hexahydropyrazolo[4′,3′:9,10][1,6]oxazacycloundecino[8,7,6-hi]indole-8-carboxylic Acid]
- IC50 [2, 11]: 1.07e-06 M
- IC50 ([4]; Homo sapiens, OPM-2, 72 h): 1.24e-06 M
- IC50 [6, 12]: 8.33e-07 M
